Results: patent US9545105B2, “1-(heterocyclic carbonyl) piperidines” (BAYER INTELLECTUAL PROPERTY GMBH, priority 2010, dated 2017)

tested on: Pyrenophora teres; experiment: In vivo preventive test on Pyrenophora teres (barley); settings: 500 ppm of active ingredient, evaluated 7-9 days after inoculation
Description: Solvent: 49 parts by weight of N,N-dimethylformamide Emulsifier: 1 part by weight of alkylaryl polyglycol ether To produce a suitable preparation of active compound, 1 part by weight of active compound is mixed with the stated amounts of solvent and emulsifier, and the concentrate is diluted with water to the desired concentration. To test for preventive activity, young plants are sprayed with the preparation of active compound at the stated rate of application. One day after this treatment, the plants are inoculated with an aqueous spore suspension of Pyrenophora teres. The plants remain for 48 hours in an incubation cabinet at 22° C. and a relative atmospheric humidity of 100%. Then the plants are placed in a greenhouse at a temperature of approximately 20° C. and a relative atmospheric humidity of approximately 80%. The test is evaluated 7-9 days after the inoculation. 0% means an efficacy which corresponds to that of the untreated control while an efficacy of 100% means that no disease is observed.

SMILES	Efficacy [%]
Cc1cc(C(=O)N2CCCCC2c2ccccc2C)c(C)o1 (stereo not drawn) [Example 3]	80
Cc1cc(C)cc(C2CCCCN2C(=O)c2cc(C)oc2C)c1 (stereo not drawn) [Example 12]	90
Cc1cc(C(=O)N2CCCCC2c2cccc(Cl)c2)c(C)o1 (stereo not drawn) [Example 46]	90
Cn1nc(C(F)F)c(C(=S)N2CCCCC2c2cccc(Cl)c2)c1Cl (stereo not drawn) [Example 50]	100
Cc1nn(C)c(F)c1C(=O)N1CCCCC1c1ccc2c(c1)OCCO2 (stereo not drawn) [Example 64]	95
COc1cc(OC)cc(C2CCCCN2C(=O)c2cc(C)oc2C)c1 (stereo not drawn) [Example 70]	80

tested on: not listed separately; experiment: log P by HPLC on reversed-phase column (C 18), EEC Directive 79/831 Annex V.A8; type: physicochemical; settings: HPLC on reversed-phase column (C 18); 40° C.; 0.1% aqueous formic acid and acetonitrile; linear gradient 10% to 90% acetonitrile
Description: In table 1, the log P values were determined in accordance with EEC Directive 79/831 Annex V.A8 by HPLC (High Performance Liquid Chromatography) on a reversed-phase column (C 18), using the method described below: Temperature: 40° C.; Mobile phases: 0.1% aqueous formic acid and acetonitrile; linear gradient from 10% acetonitrile to 90% acetonitrile. Calibration was carried out using unbranched alkan-2-ones (comprising 3 to 16 carbon atoms) with known log P values (determination of the log P values by the retention times using linear interpolation between two successive alkanones). lambda-max-values were determined using UV-spectra from 200 nm to 400 nm and the peak values of the chromatographic signals.

logP	SMILES
3.19	CCc1noc(C)c1C(=O)N1CCCCC1c1ccccc1C (stereo not drawn) [Example 2]
3.55	Cc1cc(C)cc(C2CCCCN2C(=O)c2nn(C)cc2I)c1 (stereo not drawn) [Example 13]
3.09	Cc1cc(C)cc(C2CCCCN2C(=O)c2cn(C)nc2[N+](=O)[O-])c1 (stereo not drawn) [Example 14]
3.60	Cc1cc(C)cc(C2CCCCN2C(=O)c2nnsc2C)c1 (stereo not drawn) [Example 15]
3.55	Cc1cc(C)cc(C2CCCCN2C(=O)c2nn(C)cc2Br)c1 (stereo not drawn) [Example 18]
3.44	Cc1cc(C)cc(C2CCCCN2C(=O)c2nn(C)cc2Cl)c1 (stereo not drawn) [Example 19]
3.67	CCn1nc(C)c(C(=O)N2CCCCC2c2cc(C)cc(C)c2)c1F (stereo not drawn) [Example 20]
3.73	Cc1cc(C)cc(C2CCCCN2C(=O)c2scnc2Cl)c1 (stereo not drawn) [Example 21]
4.59	Cc1cc(C)cc(C2CCCCN2C(=O)c2c(C(F)(F)F)cn(C)c2Cl)c1 (stereo not drawn) [Example 22]
3.85	Cc1cc(C)cc(C2CCCCN2C(=O)c2cn(C)nc2C(Cl)Cl)c1 (stereo not drawn) [Example 24]
4.06	Cc1cc(C)cc(C2CCCCN2C(=O)c2sc(C)nc2Cl)c1 (stereo not drawn) [Example 28]
4.34	CCn1ncc(Cl)c1C(=O)N1CCCCC1c1cc(C)cc(C)c1 (stereo not drawn) [Example 32]
4.93	Cc1cc(C)cc(C2CCCCN2C(=O)c2c(C)oc(C)c2Br)c1 (stereo not drawn) [Example 33]
3.29	CCc1noc(C)c1C(=O)N1CCCCC1c1ccccc1Cl (stereo not drawn) [Example 38]
3.89	Cc1cc(C(=O)N2CCCCC2c2ccccc2Cl)c(C)o1 (stereo not drawn) [Example 39]
4.04	Cc1cc(C(=O)N2CCCCC2c2cccc(Cl)c2)c(C)o1 (stereo not drawn) [Example 46]
4.31	Cn1nc(C(F)F)c(C(=S)N2CCCCC2c2cccc(Cl)c2)c1Cl (stereo not drawn) [Example 50]
2.66	CCc1nn(C)c(F)c1C(=O)N1CCCCC1c1ccc2c(c1)OCCO2 (stereo not drawn) [Example 63]
2.99	Cn1nc(C(F)F)c(C(=O)N2CCCCC2c2ccc3c(c2)OCCO3)c1Cl (stereo not drawn) [Example 66]

logP	SMILES
3.48	COc1cc(OC)cc(C2CCCCN2C(=O)c2cc(C)oc2C)c1 (stereo not drawn) [Example 70]
3.73	CCc1noc(C)c1C(=O)N1CCCCC1c1cccc(Cl)c1Cl (stereo not drawn) [Example 74]
3.60	Cc1nn(C)c(Cl)c1C(=O)N1CCCCC1c1ccc(Cl)cc1Cl (stereo not drawn) [Example 75]
3.89	CCc1noc(C)c1C(=O)N1CCCCC1c1ccc(Cl)cc1Cl (stereo not drawn) [Example 77]
3.78	CCc1noc(C)c1C(=O)N1CCCCC1c1cc(Cl)ccc1Cl (stereo not drawn) [Example 85]
3.64	CCc1noc(C)c1C(=O)N1CCCCC1c1ccc(Br)cc1 (stereo not drawn) [Example 101]
2.21	COc1cc(C2CCCCN2C(=O)c2c(C)nn(C)c2F)cc(OC)c1OC (stereo not drawn) [Example 106]
2.64	CCc1noc(C)c1C(=O)N1CCCCC1c1cc(OC)c(OC)c(OC)c1 (stereo not drawn) [Example 107]
2.49	CCc1nn(C)c(F)c1C(=O)N1CCCCC1c1cc(OC)c(OC)c(OC)c1 (stereo not drawn) [Example 109]
3.76	CCc1noc(C)c1C(=O)N1CCCCC1c1ccc2ccccc2c1 (stereo not drawn) [Example 119]
3.17	Cc1nc(C(F)F)c(C(=O)N2CCCCC2Cc2ccccc2)s1 (stereo not drawn) [Example 133]
3.59	Cc1cc(C(=O)N2CCCCC2Cc2cccc(F)c2)c(C)o1 (stereo not drawn) [Example 152]
3.70	Cc1nc(C(F)F)c(C(=O)N2CCCCC2Cc2cccc(C(F)(F)F)c2)s1 (stereo not drawn) [Example 167]
4.06	Cc1cc(C(=O)N2CCCCC2Cc2cccc(C(F)(F)F)c2)c(C)o1 (stereo not drawn) [Example 168]
3.65	Cn1nc(C(F)F)c(C(=O)N2CCCCC2Cc2cccc3ccccc23)c1F (stereo not drawn) [Example 171]
3.44	CCc1noc(C)c1C(=O)N1CCCCC1CCc1ccccc1 (stereo not drawn) [Example 174]
3.92	Cc1cc(C(=O)N2CCCCC2CCc2ccccc2)c(C)o1 (stereo not drawn) [Example 175]
3.52	Cc1nc(C(F)F)c(C(=O)N2CCCCC2CCc2ccccc2)s1 (stereo not drawn) [Example 178]
3.35	Cc1nc(C(F)F)c(C(=O)N2CCCCC2CCc2cccs2)s1 (stereo not drawn) [Example 192]

More lines, now with the values behind:

SMILES	logP
Cc1cc(C(=O)N2CCCCC2c2ccccc2C)c(C)o1 (stereo not drawn) [Example 3]	3.73
Cc1cc(C)cc(C2CCCCN2C(=O)c2cc(C)oc2C)c1 (stereo not drawn) [Example 12]	4.34
Cc1cc(C)cc(C2CCCCN2C(=O)c2snnc2C(C)C)c1 (stereo not drawn) [Example 16]	4.59
Cc1cc(C)cc(C2CCCCN2C(=O)c2snnc2C)c1 (stereo not drawn) [Example 17]	3.71
Cc1cc(C)cc(C2CCCCN2C(=O)c2sc(Cl)nc2Cl)c1 (stereo not drawn) [Example 23]	4.86
Cc1cc(C)cc(C2CCCCN2C(=O)c2sc(Cl)nc2C)c1 (stereo not drawn) [Example 25]	4.49
Cc1cc(C)cc(C2CCCCN2C(=O)c2sc(Br)nc2C)c1 (stereo not drawn) [Example 26]	4.51
Cc1cc(C)cc(C2CCCCN2C(=O)c2sc(C)nc2C)c1 (stereo not drawn) [Example 27]	3.44
Cc1cc(C)cc(C2CCCCN2C(=O)c2scnc2C)c1 (stereo not drawn) [Example 29]	3.25
Cc1cc(C)cc(C2CCCCN2C(=O)c2ccsc2I)c1 (stereo not drawn) [Example 35]	4.21
CCc1noc(C)c1C(=O)N1CCCCC1c1cccc(Cl)c1 (stereo not drawn) [Example 45]	3.48
CCc1noc(C)c1C(=O)N1CCCCC1c1ccc(Cl)cc1 (stereo not drawn) [Example 52]	3.51
CCc1noc(C)c1C(=O)N1CCCCC1c1ccc2c(c1)OCCO2 (stereo not drawn) [Example 61]	2.82
Cc1cc(C(=O)N2CCCCC2c2ccc3c(c2)OCCO3)c(C)o1 (stereo not drawn) [Example 62]	3.25
Cc1nn(C)c(F)c1C(=O)N1CCCCC1c1ccc2c(c1)OCCO2 (stereo not drawn) [Example 64]	2.39
CCc1noc(C)c1C(=O)N1CCCCC1c1cc(OC)cc(OC)c1 (stereo not drawn) [Example 69]	3.02
CCc1noc(C)c1C(=O)N1CCCCC1c1ccccc1Br (stereo not drawn) [Example 89]	3.35
COc1cc(C2CCCCN2C(=O)c2cc(C)oc2C)cc(OC)c1OC (stereo not drawn) [Example 108]	3.04
Cc1cc(C(=O)N2CCCCC2c2cccc(Oc3ccccc3)c2)c(C)o1 (stereo not drawn) [Example 111]	4.65
Cc1cc(C(=O)N2CCCCC2c2ccc(Br)s2)c(C)o1 (stereo not drawn) [Example 127]	4.29
CCn1nc(C)c(C(=O)N2CCCCC2c2ccc(Br)s2)c1F (stereo not drawn) [Example 128]	3.55
CCc1noc(C)c1C(=O)N1CCCCC1Cc1ccccc1 (stereo not drawn) [Example 130]	3.11
COc1ccccc1CC1CCCCN1C(=O)c1cc(C)oc1C (stereo not drawn) [Example 158]	3.63
Cc1nc(C(F)F)c(C(=O)N2CCCCC2Cc2cccc3ccccc23)s1 (stereo not drawn) [Example 170]	3.76
Cc1cc(C(=O)N2CCCCC2CCc2cccs2)c(C)o1 (stereo not drawn) [Example 193]	3.79

same assay, conditions: reversed-phase HPLC column (C 18); HPLC, 40° C., 0.1% aqueous formic acid and acetonitrile

chromatographic logP	SMILES
3.55	Cc1ccc(C2CCCC(C)N2C(=O)c2c(C(F)F)nn(C)c2F)cc1 (stereo not drawn) [Example 197]
3.73	Cc1ccc(C2CCCC(C)N2C(=O)c2c(C(F)F)nn(C)c2Cl)cc1 (stereo not drawn) [Example 198]
3.17	Cc1ccc(C2CCCC(C)N2C(=O)c2cn(C)nc2C(F)F)cc1 (stereo not drawn) [Example 199]
